Reference: patent publication US8530453B2, “Compounds and methods for the treatment of pain and other diseases” (Aquilus Pharmaceuticals, Inc., priority 2009, dated 2013)

Columns and labels:
[1] = In-vitro mouse microsomal stability; assay type: in vitro ADME; conditions: compound 1 microMolar, at T = 60 minutes; for % Mean Remaining Parent with NADPH (%): mouse microsomes 0.3 mg/mL, 37 C; for % Mean Remaining Parent without NADPH (%): mouse microsomes, control omitting NADPH
Experimental: Human and mouse microsomal stability was determined for select compounds following the method of Houston (Houston, J B; Biochem. Pharmacol. 47, (1994), 1469).
1 μM concentration of compound and seperate human and mouse microsomes (0.3 mg/mL, BD bioscience) were used in the in-vitro assay. To ensure proper energy supply for microsomal degradation of compound, an energy regenerating system comprised of 100 mM potassium phosphate, 2 mM NADPH, 3 mM MgCl2, pH=7.4. and the microsomal protein is added to each sample and the resulting suspension is then incubated in duplicate for 60 min at 37° C. in a rotary shaker. A control is run for each test agent in duplicate omitting NADPH to detect NADPH-free degradation. At T=0 and T=60 min., an aliquot is removed from each experimental and control reaction and then mixed with an equal volume of ice-cold Stop Solution (consisting of 0.3% acetic acid in acetonitrile containing haloperidol and diclofenac as internal standards). Stopped reactions are then incubated for at least ten minutes at −20° C., and an additional volume of water is then be added. The samples are then centrifuged to remove precipitated protein, and the supernatants are then analyzed by LC-MS/MS to determine the percentage of compound remaining. The LC-MS/MS system used was an Agilent 6410 mass spectrometer coupled with an Agilent 1200 HPLC and a CTC PAL chilled autosampler, all controlled by MassHunter software (Agilent), or an ABI2000 mass spectrometer coupled with an Agilent 1100 HPLC and a CTC PAL chilled autosampler, all controlled by Analyst software (ABI). After separation on a C18 reverse phase HPLC column (Agilent, Waters, or equivalent) using an acetonitrile-water gradient system, peaks were analyzed by mass spectrometry (MS) using ESI ionization in MRM mode.

[2] = system: spinal nerve ligation (SNL) mouse model, mechanical allodynia; assay: Intrathecal (i.t.) administration in the SNL mouse model of pain, von Frey tactile allodynia test; assay type: in vivo; conditions: for 50% paw withdrawal threshold, mean, Day (-2) Pre-operative Baseline: group baseline prior to SNL injury, before treatment, FVB male mice
Text: (§1) To measure the neuropathic pain inhibiting affects of the MMP inhibitors of the present invention, the spinal nerve ligation (SNL) mouse model was run on a select number of compounds. This model which began with the work of Bennet and coworkers (Bennet, G. J. et al. Pain, 33, (1988), 87-107) and was optimized by Kim and Chung (Kim, S. H.; Chung, J. M. Pain, 50, (1992), 355-363) entails first, under magnification, the removal of one-third of the transverse process and then identifying and then dissecting free the L5 spinal nerve from the adjacent L4 spinal nerve in the mouse. The L5 spinal nerve is then tightly ligated using 6.0 silk suture. The nerve injury leads to hyperalgesia which manifests itself by enhanced responses to mechanical, heat and/or cooling stimuli. In this case, mechanical hyperalgesia is tested via Von Frey monofilaments in which filaments of varying thicknesses and bending force are individually applied to the plantar surface of the foot of the mouse. The threshold force necessary for paw withdrawal decreases dramatically after the nerve surgery. Potent pain inhibitors will reverse this affect resulting in greater force needing to be applied to cause the rodent paw to withdrawal.
Following preoperative baseline (Day −2) paw threshold measurement, FVB male mice were subjected to SNL injury (Day −1). […] Over the course of the study, paw withdrawal threshold of these animals was measured in response to mechanical stimulation using the von Frey Monofilament Test. […]
(§2) Tactile Allodynia Test. Mechanical allodynia was measured using the calibrated von Frey filaments (Semmes-Weinstein monofilaments; Stoelting, Wood Dale, Ill., U.S.A.). […] The Fifty percent paw withdrawal threshold response was determined by sequentially increasing or decreasing the stimulus strength according to the “up-down method” of Dixon (Annual Review Pharmacology Toxicology, 20, (1980), 441-462). […]

[3] = system: spinal nerve ligation (SNL) mouse model, mechanical allodynia; assay: Intraperitoneal (i.p.) administration in the SNL mouse model of pain, von Frey tactile allodynia test; assay type: in vivo
Text: as §1, with “The threshold force necessary for paw withdrawal decreases dramatically after the nerve surgery. Potent pain inhibitors will reverse this affect resulting in greater force needing to be applied to cause the rodent paw to withdrawal.” left out
as §2

[4] = target: Catalytic domain of MMP-9 (human recombinant) (Homo sapiens, UniProt P14780); assay: biochemical; conditions: read-out: Average Percent Inhibition (MMP-9)
Catalytic domain of MMP-9 (human recombinant), sequence (P14780 107-444 limits assumed): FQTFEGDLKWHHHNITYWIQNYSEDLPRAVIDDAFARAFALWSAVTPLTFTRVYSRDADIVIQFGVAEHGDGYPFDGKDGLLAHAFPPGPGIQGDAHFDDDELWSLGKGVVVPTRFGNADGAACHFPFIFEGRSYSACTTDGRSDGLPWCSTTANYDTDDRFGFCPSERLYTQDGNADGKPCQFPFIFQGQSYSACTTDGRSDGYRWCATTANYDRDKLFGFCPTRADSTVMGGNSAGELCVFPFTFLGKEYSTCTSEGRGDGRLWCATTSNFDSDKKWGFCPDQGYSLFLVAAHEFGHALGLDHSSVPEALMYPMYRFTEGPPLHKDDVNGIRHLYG
Experimental: A concentration of MMP inhibitor of the present invention was tested (1 microMolar) in duplicate runs. […] The mixture of enzyme and compound in assay buffer was then thoroughly mixed and incubated for 60 minutes at 37° C. Upon the completion of incubation, the assay was started by the addition of 10 μM of fluorescent substrate DNP-Pro-Cha-Gly-Cys(Me)-His-Ala-Lys(n-Me-Abz)-NH2 [SEQ ID NO: 1][Cha=β-cyclohexylalanyl; Abz=2-aminobenzoyl(anthraniloyl)] (Kd˜7 microMolar). The fluorescent product, DnpPChaG, was then measured at excitation of 365 nm and emission 450 nm by an automatic plate multireader at 37° C.

mechanical nociception = conditions: in vivo; cited from earlier work
humans = conditions: clinical; cited from earlier work
[5] = system: chronic constriction injury (CCI)-mouse model; conditions: epineural daily injections, after the third day; cited from earlier work

Cc1ccc(C#Cc2ccc(S(=O)(=O)N[C@H](Cc3c[nH]c4ccccc34)C(=O)O)s2)cc1 [Compound 5, (R)-3-(1H-Indol-3-yl)-2-(5-p-tolylethynyl-thiophene-2-sulfonylamino)-propionic acid]
% Mean Remaining Parent with NADPH (%) [1]: 83% | % Mean Remaining Parent without NADPH (%) [1]: 88% | 50% paw withdrawal threshold, mean, Day (-2) Pre-operative Baseline [2]: 1.265 g

[2H]C([2H])([2H])c1ccc(C#Cc2ccc(S(=O)(=O)N[C@H](Cc3c[nH]c4ccccc34)C(=O)O)s2)cc1 [Compound 10, (R)-3-(1H-Indol-3-yl)-2-[5-(4-trideuteromethyl-phenylethynyl)-thiophene-2-sulfonylamino]-propionic acid-(D3, 98%)]
% Mean Remaining Parent with NADPH (%) [1]: 85% | % Mean Remaining Parent without NADPH (%) [1]: 91% | 50% paw withdrawal threshold, mean, Day (-2) Pre-operative Baseline [2]: 1.268 g | Reversal of allodynia (in words) ([2]; i.t., as compared to vehicle and compound #5): almost complete reversal of allodynia | Reversal of mechanical allodynia (in words) ([3]; i.p. approx. 3.3 mg/Kg daily): complete reversal of mechanical alodynia by day 5 | Duration of effect after last injection (in words) ([3]; i.p., 48 hours (day 6) from the last injection (day 4)): rather prolonged effect | inhibition at 1 µM [4]: 78%

CNC(=O)[C@H](Cc1c[nH]c2ccccc12)NC(=O)[C@@H](CC(=O)NO)CC(C)C [GM6001]
Effect on mechanical nociception (in words) (mechanical nociception): found to attenuate mechanical nociception

CNC(=O)[C@@H](NC(=O)[C@H](CC(C)C)[C@H](O)C(=O)NO)C(C)(C)C [Marimastat]
Toxicities in humans (in words) (humans): time-dependent and dose-dependent musculoskeletal toxicities (arthralgia, myalgia, tendinitis)

CC(C)C[C@H](CC(=O)NO)C(=O)N[C@@H](Cc1ccc2ccccc2c1)C(=O)N[C@@H](C)C(N)=O [TAPI-0]
Effect on mechanical allodynia and thermal hyperalgesia (in words) [5]: able to block both mechanical allodynia and thermal hyperalgesia
